Measured values as given in publication PMC3654564 (ACS Medicinal Chemistry Letters, 2013).
Numbering of substitutions follows the chain as printed.

How the values were obtained:
[1] = target: T1, oCOX-1 (Ovis aries, UniProt P05979); experiment: COX inhibition screening assay; type: biochemical, ovine
T1 sequence (P05979 25-600): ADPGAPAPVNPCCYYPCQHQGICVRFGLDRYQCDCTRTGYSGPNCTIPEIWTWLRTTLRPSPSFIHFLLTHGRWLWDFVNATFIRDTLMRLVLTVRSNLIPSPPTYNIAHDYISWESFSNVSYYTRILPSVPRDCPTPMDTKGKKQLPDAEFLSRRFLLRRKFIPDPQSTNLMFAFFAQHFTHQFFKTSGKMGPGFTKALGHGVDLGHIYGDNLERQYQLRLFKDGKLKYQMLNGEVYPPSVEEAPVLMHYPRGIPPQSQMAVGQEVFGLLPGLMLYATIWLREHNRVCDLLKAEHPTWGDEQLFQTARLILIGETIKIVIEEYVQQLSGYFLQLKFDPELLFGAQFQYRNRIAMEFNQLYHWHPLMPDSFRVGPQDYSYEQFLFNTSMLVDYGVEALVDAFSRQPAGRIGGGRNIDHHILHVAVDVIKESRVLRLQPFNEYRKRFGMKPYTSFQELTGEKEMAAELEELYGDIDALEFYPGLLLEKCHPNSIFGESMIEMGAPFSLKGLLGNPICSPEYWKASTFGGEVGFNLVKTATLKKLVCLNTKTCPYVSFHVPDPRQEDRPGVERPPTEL

[2] = target: T2, mR120A (mCOX-2 mutant) (Mus musculus, UniProt Q05769, R106A); experiment: COX inhibition screening assay, mCOX-2 R120A mutant; type: biochemical; details: inhibitor concentrations of up to 100 μM
T2 sequence (Q05769 18-604 R106A): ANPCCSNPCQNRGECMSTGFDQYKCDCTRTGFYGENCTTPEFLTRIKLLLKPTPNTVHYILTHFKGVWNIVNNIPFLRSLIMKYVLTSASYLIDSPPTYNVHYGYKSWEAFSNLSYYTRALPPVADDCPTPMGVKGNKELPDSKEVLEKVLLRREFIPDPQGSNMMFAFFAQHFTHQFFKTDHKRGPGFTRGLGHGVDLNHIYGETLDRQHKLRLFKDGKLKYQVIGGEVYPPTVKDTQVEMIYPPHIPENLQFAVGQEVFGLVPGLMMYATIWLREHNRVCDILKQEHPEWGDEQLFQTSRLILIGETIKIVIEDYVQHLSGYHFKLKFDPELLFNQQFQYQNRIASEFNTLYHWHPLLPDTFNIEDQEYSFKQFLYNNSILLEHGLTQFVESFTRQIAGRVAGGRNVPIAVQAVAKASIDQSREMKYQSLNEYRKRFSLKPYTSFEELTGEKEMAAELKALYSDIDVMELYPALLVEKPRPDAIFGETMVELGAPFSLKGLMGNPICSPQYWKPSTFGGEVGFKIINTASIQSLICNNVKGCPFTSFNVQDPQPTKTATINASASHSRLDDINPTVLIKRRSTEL

[3] = target: T3, mY355F (mCOX-2 mutant) (Mus musculus, UniProt Q05769, Y341F); experiment: COX inhibition screening assay, mCOX-2 Y355F mutant; type: biochemical; details: inhibitor concentrations of up to 100 μM
T3 sequence (Q05769 18-604 Y341F): T2 sequence (Q05769 18-604 R106A) with A89R, Y324F

[4] = target: T4, mV523I (mCOX-2 mutant) (Mus musculus, UniProt Q05769, V509I); experiment: COX inhibition screening assay, mCOX-2 V523I mutant; type: biochemical
T4 sequence (Q05769 18-604 V509I): T2 sequence (Q05769 18-604 R106A) with A89R, V492I

[5] = target: T5, hCOX-2 (Homo sapiens, UniProt P35354); experiment: Time-dependent COX inhibition assay; type: biochemical
T5 sequence (P35354 18-604): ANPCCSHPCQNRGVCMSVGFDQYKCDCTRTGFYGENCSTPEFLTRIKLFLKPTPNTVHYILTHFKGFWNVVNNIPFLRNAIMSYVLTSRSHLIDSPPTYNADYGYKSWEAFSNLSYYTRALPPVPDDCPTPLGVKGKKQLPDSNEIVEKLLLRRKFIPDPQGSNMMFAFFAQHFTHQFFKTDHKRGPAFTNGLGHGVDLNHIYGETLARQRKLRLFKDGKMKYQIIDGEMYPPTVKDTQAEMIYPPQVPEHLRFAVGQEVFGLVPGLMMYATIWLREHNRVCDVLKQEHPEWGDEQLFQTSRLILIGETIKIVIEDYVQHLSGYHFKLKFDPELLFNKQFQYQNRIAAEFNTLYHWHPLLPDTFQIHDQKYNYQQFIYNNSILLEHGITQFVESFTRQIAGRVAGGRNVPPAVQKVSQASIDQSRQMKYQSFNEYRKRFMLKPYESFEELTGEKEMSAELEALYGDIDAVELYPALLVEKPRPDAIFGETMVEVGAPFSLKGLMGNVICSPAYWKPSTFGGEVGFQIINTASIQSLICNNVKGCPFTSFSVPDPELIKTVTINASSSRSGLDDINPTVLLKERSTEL

[6] = tested on: carrageenan-induced rat paw edema; experiment: Carrageenan-induced rat footpad edema model; type: in vivo; details: oral in corn oil 1 h postcarrageenan, footpad volume 2 h later
[7] = Gastrointestinal tolerability observation in rats; type: in vivo, rat
[8] = tested on: COX-2; details: also, to some extent, COX-1; cited from earlier work
[9] = Sprague–Dawley rats, doses higher than 2 mg/kg; ref previous studies; cited from earlier work

Compound: COc1ccc2c(c1)c(CC(=O)O)c(C(F)(F)F)n2C(=O)c1ccc(Cl)cc1 [CF3–indomethacin, 2-(1-(4-chlorobenzoyl)-5-methoxy-2′-trifluoromethyl-1H-indol-3-yl)ethanoic acid]
- IC50 [1]: > 100000 nM
- effect on oCOX-1 ([1]; up to very high inhibitor concentrations (100 μM)): no appreciable effect
- inhibition of Arg-120 to Ala mutant of COX-2 [2]: unable to inhibit
- inhibition of Tyr355 to Phe mutant of COX-2 [3]: unable to inhibit
- IC50 [4]: > 4000 nM
- KI for initial binding to COX-2, fold lower than for indomethacin [5]: approximately 9 fold
- Ki [5]: 1500 ± 260 nM
- k2, fold slower than for indomethacin [5]: 3 fold
- k2/KI, fold greater than for indomethacin [5]: approximately 3 fold
- forward rate constant (k2) ([5]; wild-type hCOX-2): 0.020 ± 0.001 s^–1
- EC50, anti-inflammatory activity [6]: 1.7 mg/kg
- gastrointestinal bleeding ([7]; rat, oral, tested up to 10 mg/kg): no evidence of gastrointestinal bleeding
- overnight observation after testing ([7]; treated rats maintained overnight): no passage of blood from the gastrointestinal tract was observed

Compound: COc1ccc2c(c1)c(CC(=O)O)cn2C(=O)c1ccc(Cl)cc1 [des-methyl derivative]
- COX-2 inhibition (type) [8]: weak, reversible inhibitor

Compound: COc1ccc2c(c1)c(CC(=O)O)c(C)n2C(=O)c1ccc(Cl)cc1 [indomethacin, 2-(1-(4-chlorobenzoyl)-5-methoxy-2′-methyl-1H-indol-3-yl)ethanoic acid, reference compound]
- EC50, anti-inflammatory activity [6]: 1.0 mg/kg
- gastric toxicity at higher doses [9]: substantial gastric erosion and bleeding
